From patent US10214507B2, “Carbazole-containing amides, carbamates, and ureas as cryptochrome modulators” (Reset Therapeutics, Inc., priority 2014, dated 2019)
Like-named read-outs stand apart in the source and are kept apart here.

Tests used:
[1] = test system: Dbp mRNA in whole blood of db/db mice; test: Dbp mRNA in whole blood of db/db mice after three daily doses; assay type: in vivo, mouse; conditions: 100 mg/kg PO once daily 3 days, ZT7.5
Protocol: For whole blood RNA studies, male db/db mice (9 weeks of age, The Jackson Laboratory, Bar Harbor, Me.) were used for the experiment with n=8 mice for each experimental group. […] On the final day at ZT7.5 (2:30 pm), animals were euthanized using CO2 asphyxiation, and the blood collected from the heart via cardiac puncture. The blood was placed in RNALater solution to 1.5 ml total volume. Total RNA was prepared using an Ambion Mouse RiboPure Blood RNA Isolation Kit AM1951 as follows. Samples were centrifuged for 3 minutes, discarding the supernatant. Two ml of lysis solution was added and vortexed, transferred to a 15 ml tube followed by the addition of […]. Lysis buffer was added to a total volume of 3.8 ml and vortexed. The sample mixture was extracted with 1.5 ml Acid Phenol: Chloroform and the aqueous phase was recovered. After adding 0.5 volumes of 100% ethanol and vortexing, the samples were passed through a filter column provided in the kit and washed with 750 microliters of wash buffer 1. The filter was washed with 2 passes of 750 microliters wash buffer ⅔ and dried. RNA was eluted in 200 microliters of molecular biology grade water (RNase-free).
The levels of core clock gene mRNAs in whole blood may provide a non-invasive method of determining effects of compounds in treated subjects. […]

[2] = test system: core clock gene mRNAs in mouse liver; test: Core clock gene mRNAs in liver after a single dose at peak or nadir of Cry1 expression; assay type: in vivo; conditions: single dose 50 mg/kg, liver 7.5 hours later
Protocol: For compounds that interact directly with the core clock mechanism, the time of dosing may be critical for maximizing their effects. […] The former (ZTO) is coincident with the peak of Cry1 and Bmal1 protein in mouse liver and the latter (ZT10) corresponds to the approximate nadir of Cry1 and Bmal1. Liver tissue was taken 7.5 hours later for each, and the samples were examined for core clock gene mRNAs by RT-qPCR.

[3] = 7 day dosing, glucose metabolism, insulin and compound levels in db/db mice; assay type: in vivo, mouse; conditions: male, mouse, around 8 hours after last dose, 50 mg/kg PO 7 days
Source text: (§1) Significance was accepted when p<0.05.

[4] = test system: db/db mouse model of type II diabetes; test: as above; assay type: in vivo; conditions: 50 mg/kg PO 7 days
Source text: as §1

C57/Bl6J DIO mice = test: 7 day dosing in diet-induced obesity (DIO) mouse model; assay type: in vivo; conditions: 100 mg/kg PO 7 days
Source text: Male C57/Bl6J DIO mice were obtained from The Jackson Laboratory (Sacramento, Calif.). […] Animals were accustomed to these conditions for at least 2 weeks before experimentation and used at approximately 24 weeks of age.
as §1

[5] = test system: cortisone-induced insulin resistance in Sprague Dawley rats; test: Cortisone induced insulin resistance in rats; assay type: in vivo, rat; conditions: cortisone 30 mg/kg sc + 50 mg/kg po
Protocol: Animals were dosed with cortisone (30 mg/kg sc qd) in combination with test compounds for 6 days and then terminated 27 hours after the final dose of cortisone. A reference standard (Mifepristone) was also included. Cortisone 21-acetate (Sigma C-3130) was supplied by RenaSci and administered using a dose volume of 5 ml/kg via the subcutaneous route as a fine suspension in 1% methylcellulose. […] Mifepristone (Sigma M8046) was provided by RenaSci.
Glucose and insulin determinations were performed on plasma samples obtained from a tail vein bleed taken after a 12 h fast, approximately 27 h after the last cortisone dose. Animals were then terminated and a terminal (cardiac) blood sample taken from which plasma was prepared.
Thirty four male Sprague Dawley rats (weight range 200-250 g) were ordered from Charles River, Margate, Kent, UK. […] Subsequently, animals underwent a 3 day baseline period during which they were dosed once daily with vehicle at t=0 h (07:00). […] Body weight was recorded immediately before dosing began at 07:00 (t=0 h).
On Day 6 of dosing rats were fasted for 12 h beginning at 22:30 (timed to coincide with the Day 7 termination). […] At 10:30 on Day 7, 27 h after the final dose of cortisone, a blood sample (300 μl) was taken from the lateral tail vein into tubes containing EDTA (Sarstedt 16.444). The blood was centrifuged and resultant plasma aliquot stored at −75° C. The animals were euthanized by CO2 asphyxiation followed by cervical dislocation. Terminal blood (approximately 10 ml) was collected by cardiac puncture into tubes containing EDTA (Sarstedt 5 ml 32.332) and then centrifuged and plasma stored at −75° C. The tail vein plasma was analyzed for glucose (n=2) using a commercial clinical reagent (Thermoelectron Infinity glucose reagent (TR15421) and for insulin (n=1) using the Mercodia ultrasensitive rat insulin rat ELISA (10-1251-10).
Plasma glucose and insulin were analyzed by robust regression or general linear model with treatment as a factor and bleeding order and baseline body weight as covariates. A log transformation was used if appropriate. Appropriate multiple comparison tests (two-tailed) were used to determine significant differences from the vehicle group and from the Cortisone group. P<0.05 was considered to be statistically significant.

[6] = Pharmacokinetic analysis in SD rats (plasma, LC/MS/MS); assay type: in vivo, rat; conditions: 50 mg/kg P.O.; for Cmax: plasma, 50 mg/kg
Protocol: Male SD rats (weighing 250-300 g, Charles River Laboratories) were used for the experiment with n=4 rats for each experimental group. […] Blood was collected at the following time points after administration: 15, 30, 60, 90 minutes, 3, 6, 12 and 24 hours. A pre-dose sample was also collected. Animals were cannulated by technical staff at Charles River, prior to delivery at Reset. Whole blood (0.3 ml) was collected from a cannula in the right common jugular vein at each time-point. The whole blood was transferred to an EDTA tube, and then centrifuged at 5400 rpm for 5 minutes at 4° C. The resultant plasma was frozen using dry ice and then stored at −80° C. until ready for assay. 0.9% Sodium Chloride (0.3 ml) was administered for fluid replenishment after each blood draw. 0.1 ml of Sodium Heparin (500 IU/ml) was used as a lock solution after the 12 hr time-point. Samples were assayed as described above.

concentration at 8 h ([3]; liver, read-out: compound level in liver): 670 nM | concentration at 8 h ([3]; plasma, read-out: compound level in plasma): 530 nM | Tmax ([6]; male, SD, po, rat plasma): 1.7 h | half-life ([6]; male, SD, po, rat plasma, read-out: Elimination T1/2 (converted)): 1.87 h | MRT last ([6]; male, SD, po, rat plasma, read-out: MRT (0-last, hr)): 4.94 h | Cmax ([6]; male, SD, rat, po, rat plasma, read-out: Cmax): 7100 ng/mL | Cmax ([6]; male, SD, rat, po, rat, read-out: Cmax (plasma)): 7100 ng/mL | Cmax ([6]; male, SD, rat, po, rat, unbound, read-out: Cmax UB (plasma)): 277 ng/mL | % AUC extrapolated ([6]; rat plasma): 3.3% | AUC (total; ng · hr/mL) ([6]; rat plasma): 57952 ng·h/mL | Unbound Plasma AUC (0-last) ([6]; rat): 2259
Structure (SMILES): O=C1NCCN1CC(O)Cn1c2ccc(F)cc2c2cc(F)ccc21 (centres unmarked) [Compound 72, 1-(3-(3,6-difluoro-9H-carbazol-9-yl)-2-hydroxypropyl)imidazolidin-2-one]
Dbp gene expression in whole blood [1]: statistically significant suppression | impact on clock mRNAs, dosing at peak (ZT0) vs nadir (ZT10) [2]: greater relative impact on the clock mRNAs at the peak compared to the nadir | HOMA-IR [4]: 93.69+/−23.60 units | fasting blood glucose (FBG) [4]: 385.0 ± 29.69 mg/dL | glucose AUC calculated from the OGTT [4]: 35942+/−3192 | plasma insulin at t=0 [4]: 3.78 ± 0.69 ng/mL | plasma insulin at t=2 hr ([4]; after glucose load): 2.53 ± 0.50 ng/mL | reduction of HOMA-IR ([4]; vs vehicle): 33% | reduction of insulin at t=0 ([4]; vs vehicle): 20% | reduction of insulin at t=2 hr ([4]; vs vehicle): 21% | HOMA-IR (C57/Bl6J DIO mice): 32.54+/−3.37 units | fasting blood glucose (C57/Bl6J DIO mice): 177.1 ± 8.28 mg/dL | glucose AUC calculated from the OGTT (C57/Bl6J DIO mice): 17055+/−769.1 | plasma insulin at t=0 (C57/Bl6J DIO mice): 3.12 ± 0.24 ng/mL | plasma insulin at t=2 hr (C57/Bl6J DIO mice): 2.88 ± 0.21 ng/mL | HOMA-IR ([5]; insulin resistant rats): 56.94+/−11.18 units | fasted plasma glucose ([5]; rats): 8.55 ± 0.3 mM | fasted plasma insulin ([5]; rats): 5.24 ± 1.1 ng/mL
